Laboratory results reported in article PMC2923275 (Biochemical pharmacology, 2010).

How the values were obtained:
[1] = system: adenosine kinase deficient (TgAK^-3) strain of T. gondii; experiment: Anti-toxoplasmic activity in tissue culture; assay type: cell-based, Toxoplasma gondii; conditions: TgAK^-3 in human fibroblasts
[2] = biological target: purified T. gondii adenosine kinase (Toxoplasma gondii, UniProt Q9TVW2); experiment: Alternative substrate assay with purified recombinant enzyme; assay type: biochemical; conditions: 100 μM analogue, overnight at 37°C, HPLC
purified T. gondii adenosine kinase, sequence (Q9TVW2 whole entry): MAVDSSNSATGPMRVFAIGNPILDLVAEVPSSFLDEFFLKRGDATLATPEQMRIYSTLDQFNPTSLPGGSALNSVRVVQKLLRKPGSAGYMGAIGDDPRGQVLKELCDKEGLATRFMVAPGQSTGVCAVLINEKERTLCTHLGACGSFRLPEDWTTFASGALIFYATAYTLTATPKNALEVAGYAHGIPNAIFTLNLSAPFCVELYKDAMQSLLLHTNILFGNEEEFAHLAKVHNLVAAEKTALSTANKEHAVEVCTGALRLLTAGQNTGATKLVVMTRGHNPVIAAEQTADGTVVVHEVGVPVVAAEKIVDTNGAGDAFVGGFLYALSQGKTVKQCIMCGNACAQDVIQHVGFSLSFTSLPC

[3] = system: uninfected human foreskin fibroblasts; experiment: Host toxicity, MTT assay on uninfected host cells; conditions: infection: None
[4] = system: wild type (RH) strain of T. gondii; experiment: Anti-toxoplasmic activity in tissue culture; assay type: cell-based, Toxoplasma gondii; conditions: wild type (RH) in human fibroblasts
[5] = system: Toxoplasma gondii adenosine kinase; conditions: cited from earlier work; for Km: read-out: Km (binding affinity), apparent Km equal to apparent Ki
[6] = system: Toxoplasma gondii adenosine kinase; experiment: Binding affinity; conditions: relative to 6-(p-methylbenzylthio)inosine; ref 24 and Table 2

Compound: OCC1CC(n2cnc3c(SCc4ccc(F)cc4)ncnc32)C(O)C1O (centres unmarked) [Compound 8, Carbocyclic 6-(p-fluorobenzylthio)inosine]
- percent survival of parasite ([1]; 5 μM compound): 100%
- percent survival of parasite ([1]; 10 μM compound): 100%
- percent survival of parasite ([1]; 25 μM compound): 100%
- percent survival of parasite ([1]; 50 μM compound): 100%
- metabolism to nucleoside 5'-monophosphate by the enzyme [2]: its 5’-monophosphate derivative appeared as a new peak
- host-toxicity (survival of uninfected host cells) ([3]; 5 μM compound): 100%
- host-toxicity (survival of uninfected host cells) ([3]; 10 μM compound): 100%
- host-toxicity (survival of uninfected host cells) ([3]; 25 μM compound): 100%
- host-toxicity (survival of uninfected host cells) ([3]; 50 μM compound): 100%
- percent survival of parasite ([4]; 5 μM compound): 89.2%
- percent survival of parasite ([4]; 10 μM compound): 61.5%
- percent survival of parasite ([4]; 25 μM compound): 12.4%
- percent survival of parasite ([4]; 50 μM compound): 3.4%

Compound: OCC1CC(n2cnc3c(SCc4ccccc4)ncnc32)C(O)C1O (centres unmarked) [Compound 1, Carbocyclic 6-(benzylthio)inosine]
- percent survival of parasite ([1]; 5 μM compound): 100%
- percent survival of parasite ([1]; 10 μM compound): 100%
- percent survival of parasite ([1]; 25 μM compound): 100%
- percent survival of parasite ([1]; 50 μM compound): 100%
- Km [5]: 105 µM
- metabolism to nucleoside 5'-monophosphate by the enzyme [2]: converted to their respective nucleoside 5’-monophosphates
- host-toxicity (survival of uninfected host cells) ([3]; 5 μM compound): 100%
- host-toxicity (survival of uninfected host cells) ([3]; 10 μM compound): 100%
- host-toxicity (survival of uninfected host cells) ([3]; 25 μM compound): 100%
- host-toxicity (survival of uninfected host cells) ([3]; 50 μM compound): 94.3%
- percent survival of parasite ([4]; 5 μM compound): 84.7%
- percent survival of parasite ([4]; 10 μM compound): 42.7%
- percent survival of parasite ([4]; 25 μM compound): 4.9%
- percent survival of parasite ([4]; 50 μM compound): 0.0%

Compound: 6-Benzylthioinosine [Compound 22, reference compound]
- percent survival of parasite ([1]; 5 μM compound): 100%
- percent survival of parasite ([1]; 10 μM compound): 100%
- percent survival of parasite ([1]; 25 μM compound): 100%
- percent survival of parasite ([1]; 50 μM compound): 100%
- Km [5]: 14.3 µM
- percent survival of parasite ([4]; 5 μM compound): 92.7%
- percent survival of parasite ([4]; 10 μM compound): 45.8%
- percent survival of parasite ([4]; 25 μM compound): 7.6%
- percent survival of parasite ([4]; 50 μM compound): 0.0%

Compound: OCC1CC(n2cnc3c(SCc4ccc(Br)cc4)ncnc32)C(O)C1O (centres unmarked) [Compound 10, Carbocyclic 6-(p-bromobenzylthio)inosine]
- percent survival of parasite ([1]; 5 μM compound): 100%
- percent survival of parasite ([1]; 10 μM compound): 100%
- percent survival of parasite ([1]; 25 μM compound): 100%
- percent survival of parasite ([1]; 50 μM compound): 100%
- host-toxicity (survival of uninfected host cells) ([3]; 5 μM compound): 100%
- host-toxicity (survival of uninfected host cells) ([3]; 10 μM compound): 100%
- host-toxicity (survival of uninfected host cells) ([3]; 25 μM compound): 100%
- host-toxicity (survival of uninfected host cells) ([3]; 50 μM compound): 100%
- percent survival of parasite ([4]; 5 μM compound): 77.1%
- percent survival of parasite ([4]; 10 μM compound): 47.3%
- percent survival of parasite ([4]; 25 μM compound): 1.2%
- percent survival of parasite ([4]; 50 μM compound): 1.0%

Compound: 7-deaza-6-(p-methylbenzylthio)inosines
- increase of relative binding affinity by inclusion of the 7-deaza motif ([5]; relative to 6-(p-methylbenzylthio)inosine): 2.8 fold

Compound: OCC1CC(n2cnc3c(SCc4ccc(Cl)cc4Cl)ncnc32)C(O)C1O (centres unmarked) [Compound 18, Carbocyclic 6-(o,p-dichlorobenzylthio)inosine]
- percent survival of parasite ([1]; 5 μM compound): 100%
- percent survival of parasite ([1]; 10 μM compound): 100%
- percent survival of parasite ([1]; 25 μM compound): 100%
- percent survival of parasite ([1]; 50 μM compound): 100%
- host-toxicity (survival of uninfected host cells) ([3]; 5 μM compound): 100%
- host-toxicity (survival of uninfected host cells) ([3]; 10 μM compound): 100%
- host-toxicity (survival of uninfected host cells) ([3]; 25 μM compound): 100%
- host-toxicity (survival of uninfected host cells) ([3]; 50 μM compound): 90.6%
- percent survival of parasite ([4]; 5 μM compound): 84.4%
- percent survival of parasite ([4]; 10 μM compound): 45.1%
- percent survival of parasite ([4]; 25 μM compound): 0.0%
- percent survival of parasite ([4]; 50 μM compound): 0.0%

Compound: Cc1ccc(CSc2ncnc3c2ncn3C2CC(CO)C(O)C2O)cc1 (centres unmarked) [Compound 11, Carbocyclic 6-(p-methylbenzylthio)inosine]
- percent survival of parasite ([1]; 5 μM compound): 99.0%
- percent survival of parasite ([1]; 10 μM compound): 100%
- percent survival of parasite ([1]; 25 μM compound): 100%
- percent survival of parasite ([1]; 50 μM compound): 100%
- host-toxicity (survival of uninfected host cells) ([3]; 5 μM compound): 100%
- host-toxicity (survival of uninfected host cells) ([3]; 10 μM compound): 100%
- host-toxicity (survival of uninfected host cells) ([3]; 25 μM compound): 100%
- host-toxicity (survival of uninfected host cells) ([3]; 50 μM compound): 100%
- enhancement of binding by inclusion of the carbocyclic motif [6]: 3.7 fold
- percent survival of parasite ([4]; 5 μM compound): 43.4%
- percent survival of parasite ([4]; 10 μM compound): 2.54%
- percent survival of parasite ([4]; 25 μM compound): 0.0%
- percent survival of parasite ([4]; 50 μM compound): 0.0%

Compound: Cc1ccccc1CSc1ncnc2c1ncn2C1CC(CO)C(O)C1O (centres unmarked) [Compound 4, Carbocyclic 6-(o-methylbenzylthio)inosine]
- percent survival of parasite ([1]; 5 μM compound): 100%
- percent survival of parasite ([1]; 10 μM compound): 100%
- percent survival of parasite ([1]; 25 μM compound): 100%
- percent survival of parasite ([1]; 50 μM compound): 100%
- host-toxicity (survival of uninfected host cells) ([3]; 5 μM compound): 100%
- host-toxicity (survival of uninfected host cells) ([3]; 10 μM compound): 100%
- host-toxicity (survival of uninfected host cells) ([3]; 25 μM compound): 100%
- host-toxicity (survival of uninfected host cells) ([3]; 50 μM compound): 99.2%
- percent survival of parasite ([4]; 5 μM compound): 82.7%
- percent survival of parasite ([4]; 10 μM compound): 45.4%
- percent survival of parasite ([4]; 25 μM compound): 7.6%
- percent survival of parasite ([4]; 50 μM compound): 0.0%

Compound: OCC1CC(n2cnc3c(SCc4c(F)cccc4Cl)ncnc32)C(O)C1O (centres unmarked) [Compound 20, Carbocyclic 6-(o-chloro-o-fluorobenzylthio)inosine]
- percent survival of parasite ([1]; 5 μM compound): 100%
- percent survival of parasite ([1]; 10 μM compound): 100%
- percent survival of parasite ([1]; 25 μM compound): 100%
- percent survival of parasite ([1]; 50 μM compound): 100%
- host-toxicity (survival of uninfected host cells) ([3]; 5 μM compound): 100%
- host-toxicity (survival of uninfected host cells) ([3]; 10 μM compound): 100%
- host-toxicity (survival of uninfected host cells) ([3]; 25 μM compound): 100%
- host-toxicity (survival of uninfected host cells) ([3]; 50 μM compound): 100%
- percent survival of parasite ([4]; 5 μM compound): 56.3%
- percent survival of parasite ([4]; 10 μM compound): 15.6%
- percent survival of parasite ([4]; 25 μM compound): 3.7%
- percent survival of parasite ([4]; 50 μM compound): 0.0%

Compound: COc1ccc(CSc2ncnc3c2ncn3C2CC(CO)C(O)C2O)cc1 (centres unmarked) [Compound 15, Carbocyclic 6-(p-methoxybenzylthio)inosine]
- percent survival of parasite ([1]; 5 μM compound): 98.4%
- percent survival of parasite ([1]; 10 μM compound): 100%
- percent survival of parasite ([1]; 25 μM compound): 100%
- percent survival of parasite ([1]; 50 μM compound): 100%
- host-toxicity (survival of uninfected host cells) ([3]; 5 μM compound): 100%
- host-toxicity (survival of uninfected host cells) ([3]; 10 μM compound): 100%
- host-toxicity (survival of uninfected host cells) ([3]; 25 μM compound): 94.3%
- host-toxicity (survival of uninfected host cells) ([3]; 50 μM compound): 82.1%
- percent survival of parasite ([4]; 5 μM compound): 48.3%
- percent survival of parasite ([4]; 10 μM compound): 1.9%
- percent survival of parasite ([4]; 25 μM compound): 0.0%
- percent survival of parasite ([4]; 50 μM compound): 0.0%
